Assays:
hENPP2 [1] = target: T1, hENPP2 (UniProtKB/SwissProt Q13822) (Homo sapiens (Human), UniProt Q13822); assay: hENPP2 biochemical assay, LPC as substrate; details: LPC (palmitoyl 16:0) as substrate
Method in brief: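 Human ENPP2 in 50 mM Tris-HCl pH 8.5, 500 mM NaCl, 5 mM KCl, 10 mM CaCl2, 0.1% fatty-acid-free BSA, reacted 30 min at 37 °C with LPC 16:0 (150 µM solution added 1:1). Released choline measured via choline oxidase/peroxidase/TOOS/4-aminoantipyrine quinoneimine dye at 555 nm; IC50 reported.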

hENPP2 [2] = target: T1, hENPP2; assay: fluorescent hENPP2 biochemical assay, FS-3 as substrate; details: read-out: FS3-IC50
Method in brief: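 hENPP2 in 50 mM Tris-HCl pH 8.0, 250 mM NaCl, 5 mM KCl, 1 mM MgCl2, 1 mM CaCl2, 0.1% fatty-acid-free BSA, preincubated with compound 30 min at room temperature. The 0.75 μM FS-3 solution was added and the mixture incubated 30 min at 30° C. Fluorescence (ex 485/em 520 nm) gives IC50.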

Compound | IC50 (hENPP2 [1]) | IC50 (hENPP2 [2])
CCc1nc2ccc(N3CCNC3=O)cn2c1N(C)c1nc(-c2ccc(Cl)cc2)cs1 [Compound 183, 1-(3-((4-(4-chlorophenyl)thiazol-2-yl)(methyl)amino)-2-ethylimidazo[1,2-a]pyridin-6-yl)imidazolidin-2-one] | > 1000 nM | 0.01 to 100 nM
CCOC(=O)CN1CCN(c2ccc3nc(CC)c(N(C)c4nc(-c5ccc(Cl)cc5)cs4)n3c2)C1=O [Compound 184, ethyl 2-(3-(3-((4-(4-chlorophenyl)thiazol-2-yl)(methyl)amino)-2-ethylimidazo[1,2-a]pyridin-6-yl)-2-oxoimidazolidin-1-yl)acetate] | > 1000 nM | 0.01 to 100 nM
CN(c1nc(-c2ccc(Cl)cc2)cs1)c1c(CC(F)(F)F)nc2ccc(C3=CCN(S(C)(=O)=O)CC3)cn12 [Compound 185, 4-(4-chlorophenyl)-N-methyl-N-(6-(1-(methylsulfonyl)-1,2,3,6-tetrahydropyridin-4-yl)-2-(2,2,2-tetrahydropyridin-4-yl)-2-(2,2,2-trifluoroethyl)imidazo [1,2-a]pyridin-3-yl) thiazol-2-amine] | > 1000 nM | 0.01 to 100 nM
CCc1nc2ccc(C3CCN(S(C)(=O)=O)CC3)cn2c1N(C)c1nc(-c2ccc(F)cc2)c(CC#N)s1 [Compound 186, 2-(2-((2-ethyl-6-(1-(methylsulfonyl)piperidin-4-yl)imidazo[1,2-a]pyridin-3-yl)(methyl)amino)-4-(4-fluorophenyl)thiazol-5-yl)acetonitrile] | > 1000 nM | 0.01 to 100 nM

Other lines, results leading:

IC50 (hENPP2 [1]) | IC50 (hENPP2 [2]) | Compound
100 to 500 nM | 0.01 to 100 nM | CCc1nc2ccc(C3CCN(CC(=O)N4CC(O)C4)CC3)cn2c1N(C)c1nc(-c2ccc(F)cc2C#N)c(C)s1 [Compound 172, 2-(2-((2-ethyl-6-(1-(2-(3-hydroxyazetidin-1-yl)-2-oxoethyl)piperidin-4-yl)imidazo[1,2-a]pyridin-3-yl)(methyl)amino)-5-methylthiazol-4-yl)-5-fluorobenzonitrile]
> 1000 nM | 0.01 to 100 nM | CCc1nc2ccc(N3CC(NC(=O)CN4CC(O)C4)C3)cn2c1N(C)c1nc(-c2ccc(F)cc2)cs1 [Compound 179, N-(1-(2-ethyl-3-((4-(4-fluorophenyl)thiazol-2-yl)(methyl)amino)imidazo[1,2-a]pyridin-6-yl)azetidin-3-yl)-2-(3-hydroxyazetidin-1-yl)acetamide]
> 1000 nM | 0.01 to 100 nM | CCc1nc2ccc(C3=CCN(S(C)(=O)=O)CC3)cn2c1N(C)c1nc(-c2ccc(F)cc2)no1 [Compound 189, N-(2-ethyl-6-(1-(methylsulfonyl)-1,2,3,6-tetrahydropyridin-4-yl)imidazo[1,2-a]pyridin-3-yl)-3-(4-fluorophenyl)-N-methyl-1,2,4-oxadiazol-5-amine]
> 1000 nM | 0.01 to 100 nM | CCc1nc2ccc(C3CCN(CC(=O)N(C)C)CC3)cn2c1N(C)c1nc(-c2ccc(F)cc2)ns1 [Compound 191, 2-(4-(2-ethyl-3-((3-(4-fluorophenyl)-1,2,4-thiadiazol-5-yl)(methyl)amino)imidazo[1,2-a]pyridin-6-yl)piperidin-1-yl)-N,N-dimethylacetamide]
> 1000 nM | 0.01 to 100 nM | CCc1nc2ccc(C3CCN(CC(=O)NC4CC4)CC3)cn2c1N(C)c1nc(-c2ccc(F)cc2)cs1 [Compound 194, N-cyclopropyl-2-(4-(2-ethyl-3-((4-(4-fluorophenyl)thiazol-2-yl)(methyl)amino)imidazo[1,2-a]pyridin-6-yl)piperidin-1-yl)acetamide]
> 1000 nM | 100 to 500 nM | CCc1nc2ccc(C3=CCN(S(C)(=O)=O)CC3)cn2c1N(C)c1nc(-c2ccc(F)cc2)ns1 [Compound 199, N-(2-ethyl-6-(1-(methylsulfonyl)-1,2,3,6-tetrahydropyridin-4-yl)imidazo[1,2-a]pyridin-3-yl)-3-(4-fluorophenyl)-N-methyl-1,2,4-thiadiazol-5-amine]
